{"source": "patent US9278100B2", "about": "“Inhibitors of bruton's tyrosine kinase for the treatment of solid tumors” (Pharmacyclics LLC, priority 2008, dated 2016)", "key": {"[1]": {"tested_on": "proteinuria", "test": "Mouse MRL/lpr model of lupus", "type": "in vivo, MRL/lpr mice", "details": "3.125 mg/kg, 12.5 mg/kg, and 50 mg/kg orally once per day"}, "[2]": {"tested_on": "Ramos", "test": "Sensitivity of Ramos cell line", "type": "cell-based", "text": "To identify biomarkers that correlate with response to Compound 1, phosphorylation events in the BCR signal transduction pathway were investigated."}, "[3]": {"tested_on": "MDA-MB-453 xenograft", "test": "MDA-MB-453 breast cancer xenograft", "type": "in vivo, nude mice", "details": "50 mg/kg or 5 mg/kg daily, tumor volume (FIG. 8)", "text": "An MDA-MB-453 breast cancer xenograft was implanted under the skin of a nude mouse. […] The volume of the tumor xenograft was monitored daily."}, "[4]": {"tested_on": "normal human B cells", "test": "B cell activation after brief exposure and washout (CD69)", "type": "cell-based", "details": "1 hour exposure, washed three times, IgM F(ab')2 stimulation 18 hours", "protocol": "B cells were purified from blood from healthy donors by negative selecting using the RosetteSep Human B cell enrichment cocktail. […] After incubation for 1 hour at 37° C., cells were washed three times using an 8-fold dilution in growth media for each wash. Cells were then stimulated with 10 ug/ml of IgM F(ab′)2 for 18 hours at 37° C. Cells were then stained with anti-CD69-PE antibody and analyzed by flow cytometry using standard conditions."}, "[5]": {"test": "Plasma concentrations in orally dosed rats", "type": "in vivo, Male jugular vein cannulated rats", "details": "rat, 8 mg/kg single dose by oral gavage, in combination", "protocol": "Male jugular vein cannulated rats were administered a single dose of all test compounds at 8 mg/kg each, in combination by oral gavage. Dose volumes were adjusted based on body weight data collected immediately prior to dosing. Blood samples were collected at 0.0833 (5 minutes), 0.333 (20 minutes), 1, 3, 6, 9, and 24 hours post-dosing from orally dosed rats. The samples were collected into plasma separator Microtainer tubes with anticoagulant (lithium heparin). Plasma samples were prepared by centrifugation (5 min at 5000×g), and at least 100 μL were transferred to storage tubes and stored frozen at −80° C. Plasma samples were thawed and 75 uL aliquots were transferred to centrifuge tubes to which 10 μL aliquots of internal standard solution (1 μg/mL) were added. The samples were not diluted with blank plasma prior to further processing. Soluble proteins were precipitated by the addition of 200 μL of acetonitrile, followed by centrifugation (20 min at 16,000×g). The samples were evaporated to dryness and reconstituted in 200 μL of water containing 0.2% formic acid and 10% methanol. All samples were loaded onto an autosampler maintained at 6° C. and evaluated for concentrations of test compounds using LC-MS/MS."}, "[6]": {"tested_on": "mast cell degranulation", "test": "Mouse passive cutaneous anaphylaxis model", "type": "in vivo", "details": "increasing doses, single oral dose", "protocol": "(FIG. 4) Mice were sensitized with an intradermal injection of monoclonal anti-DNP-IgE in the back. […] After one hour, animals were challenged with an intravenous injection of DNP-BSA and Evans Blue dye. Mast cell degranulation leads to vascular permeability and the distribution of the dye into the skin of the back. The area of extravasation after 1 hour is measured."}, "[7]": {"tested_on": "Btk expressing B cell lymphoma cell lines", "test": "Sensitivity of a panel of nine Btk expressing B cell lymphoma cell lines", "type": "cell-based", "details": "two cell lines with low pERK levels", "protocol": "After 72 hours, cell number was measured using Alamar Blue using manufacturer's protocol. A dilution series of untreated cells was run in parallel to verify that the Alamar Blue assay reliably reflected cell number and that growth conditions, were not limiting. […] GI50 values were confirmed in two or more separate experiments for each cell line.\nA panel of nine Btk expressing B cell lymphoma cell lines was screened for basal pERK levels."}, "[8]": {"target": "Tec family kinases, including Btk, and Src family kinases", "test": "In vitro profiling against a panel of greater than 100 kinases", "type": "biochemical", "text": "By way of example only and in some embodiments, the observed potency, selectivity, and cell permeability of compounds such as Compound 2 are appropriate to incorporate these molecules into a Kinase-targeted, activity based probe that allows direct visualization of Kinase activity in intact cells. […] Without limiting the scope of the compositions and methods described herein, it is postulated that the structural basis for the selectivity is covalent modification of a non-catalytic cysteine residue (Cys 481 in Btk) that is conserved in the ATP binding pocket of the Tec family and several other kinases."}, "[9]": {"target": "BTK (Homo sapiens (Human), UniProt Q06187)", "sequence (Q06187 whole entry)": "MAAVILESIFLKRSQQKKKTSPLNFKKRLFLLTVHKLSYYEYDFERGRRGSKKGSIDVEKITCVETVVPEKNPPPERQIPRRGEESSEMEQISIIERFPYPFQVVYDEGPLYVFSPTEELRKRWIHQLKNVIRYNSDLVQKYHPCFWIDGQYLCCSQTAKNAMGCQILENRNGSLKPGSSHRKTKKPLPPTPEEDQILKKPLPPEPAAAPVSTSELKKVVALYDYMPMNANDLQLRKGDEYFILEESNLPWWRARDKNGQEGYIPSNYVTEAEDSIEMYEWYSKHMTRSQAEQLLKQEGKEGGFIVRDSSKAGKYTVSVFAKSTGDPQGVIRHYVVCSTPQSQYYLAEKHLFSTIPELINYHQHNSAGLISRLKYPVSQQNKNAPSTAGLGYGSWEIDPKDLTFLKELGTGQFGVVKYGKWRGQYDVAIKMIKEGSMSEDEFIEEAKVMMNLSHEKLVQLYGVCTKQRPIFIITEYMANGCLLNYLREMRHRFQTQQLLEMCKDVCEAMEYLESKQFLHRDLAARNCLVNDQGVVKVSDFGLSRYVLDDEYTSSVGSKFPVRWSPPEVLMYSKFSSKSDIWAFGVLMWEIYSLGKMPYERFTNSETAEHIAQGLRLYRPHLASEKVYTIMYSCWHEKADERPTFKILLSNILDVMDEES", "test": "HotSpot kinase assay, BTK", "type": "biochemical", "details": "Table 2; 1 uM ATP, one hour incubation with inhibitor", "quoted_text": "For enzyme inhibition assays, compounds were tested in range often concentrations from 10 uM to 0.0005 uM using purified enzymes and the Hotspot kinase assay. Reaction conditions were 1 uM ATP, one hour incubation with inhibitor, and kinase activity detected using 33-ATP phosphorylation of an appropriately selected peptide substrate."}, "[10]": {"target": "HER4 (Homo sapiens (Human), UniProt Q15303)", "sequence (Q15303 other isoform, or with tags, fused parts or gaps)": "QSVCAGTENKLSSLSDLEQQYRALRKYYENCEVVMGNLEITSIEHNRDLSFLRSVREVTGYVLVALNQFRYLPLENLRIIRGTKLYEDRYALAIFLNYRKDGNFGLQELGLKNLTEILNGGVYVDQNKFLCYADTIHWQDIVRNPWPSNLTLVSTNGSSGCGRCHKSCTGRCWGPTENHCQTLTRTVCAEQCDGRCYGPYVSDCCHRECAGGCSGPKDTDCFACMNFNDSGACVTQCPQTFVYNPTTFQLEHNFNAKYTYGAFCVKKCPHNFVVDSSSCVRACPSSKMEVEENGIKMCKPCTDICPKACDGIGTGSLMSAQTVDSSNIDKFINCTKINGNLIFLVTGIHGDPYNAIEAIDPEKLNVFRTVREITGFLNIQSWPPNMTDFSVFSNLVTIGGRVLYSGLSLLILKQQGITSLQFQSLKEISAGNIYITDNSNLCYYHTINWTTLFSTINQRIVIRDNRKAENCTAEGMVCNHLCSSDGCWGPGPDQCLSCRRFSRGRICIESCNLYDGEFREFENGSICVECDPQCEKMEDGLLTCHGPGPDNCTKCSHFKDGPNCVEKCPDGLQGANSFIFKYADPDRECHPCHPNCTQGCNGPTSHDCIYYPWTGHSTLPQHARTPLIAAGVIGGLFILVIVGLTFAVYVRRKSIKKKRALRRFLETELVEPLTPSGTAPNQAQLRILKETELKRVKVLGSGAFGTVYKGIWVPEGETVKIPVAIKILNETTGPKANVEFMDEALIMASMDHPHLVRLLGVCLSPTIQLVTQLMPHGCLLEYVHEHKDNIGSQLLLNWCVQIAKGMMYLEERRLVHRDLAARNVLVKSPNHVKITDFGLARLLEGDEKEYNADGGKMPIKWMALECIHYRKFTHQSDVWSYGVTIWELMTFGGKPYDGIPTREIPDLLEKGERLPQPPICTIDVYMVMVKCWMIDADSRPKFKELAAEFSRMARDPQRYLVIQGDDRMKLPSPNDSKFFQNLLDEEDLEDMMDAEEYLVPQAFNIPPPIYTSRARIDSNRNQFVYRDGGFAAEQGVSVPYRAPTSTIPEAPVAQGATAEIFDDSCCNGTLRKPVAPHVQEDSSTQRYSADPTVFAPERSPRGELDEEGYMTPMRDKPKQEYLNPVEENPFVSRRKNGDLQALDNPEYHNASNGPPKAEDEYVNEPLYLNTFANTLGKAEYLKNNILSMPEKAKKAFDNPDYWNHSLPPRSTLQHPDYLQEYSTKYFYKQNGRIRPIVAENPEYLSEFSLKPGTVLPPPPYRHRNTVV", "test": "HotSpot kinase assay, HER4", "type": "biochemical", "details": "Table 1, first of two rows printed HER4; 1 uM ATP"}}}
{"compound": "C=CC(=O)N1CCC[C@@H](n2nc(-c3ccc(Oc4ccccc4)cc3)c3c(N)ncnc32)C1", "note": "[Compound 1]", "values": [{"measurement": "proteinuria", "setting": "[1]", "result": "significantly reduced proteinuria"}, {"measurement": "sensitivity to compound", "setting": "[2]", "result": "resistant"}, {"measurement": "efficacy in xenograft", "setting": "[3]", "result": "efficacy"}, {"measurement": "inhibition of B cell activation", "setting": "[4]", "result": "sufficient to inhibit B cell activation"}, {"measurement": "in vivo half-life", "setting": "[5]", "result": "short half-life"}, {"measurement": "amount of Evans Blue release", "setting": "[6]", "result": "significantly decrease the amount of Evans Blue release"}, {"measurement": "sensitivity to compound", "setting": "[7]", "result": "resistant"}]}
{"compound": "CN(C)C/C=C/C(=O)N1CCC[C@@H](n2nc(-c3ccc(Oc4ccccc4)cc3)c3c(N)ncnc32)C1", "note": "[Compound 2]", "values": [{"measurement": "kinase panel profile", "setting": "[8]", "result": "highly potent and selective inhibitor of Tec family kinases"}]}
{"compound": "CN(C/C=C/C(=O)N1CCCC(n2nc(-c3ccc(Oc4ccccc4)cc3)c3c(N)ncnc32)C1)CCO", "note": "(centres unmarked) [Compound 3]", "values": [{"measurement": "IC50", "setting": "[9]", "result": 21, "unit": "nM"}]}
{"compound": "C=CC(=O)N[C@H]1CC[C@@H](n2nc(-c3ccc(Oc4ccccc4)cc3)c3c(N)ncnc32)CC1", "note": "[Compound 9]", "values": [{"measurement": "IC50", "setting": "[10]", "result": 1540, "unit": "nM"}]}
{"compound": "CN(C)C/C=C/C(=O)N1CCC[C@H]1Cn1nc(-c2ccc(Oc3ccccc3)cc2)c2c(N)ncnc21", "note": "[Compound 12, (E)-1-((S)-2-((4-amino-3-(4-phenoxyphenyl)-1H-pyrazolo[3,4-d]pyrimidin-1-yl)methyl)pyrrolidin-1-yl)-4-(dimethylamino)but-2-en-1-one]", "values": [{"measurement": "in vivo half-life", "setting": "[5]", "result": "short half-life"}]}
